Assay results: US7402548B2, “Benzoxazole compounds, process for producing the same and herbicides” (Kyoyu Agri Co., Ltd., priority 2000, dated 2008)

Assays:
[1] = system: monochoria; experiment: Herbicidal test for paddy field; type: in vivo, Monochoria vaginalis; conditions: 500 g/ha, dropwise addition to paddy water at 1.5 leaf stage of barnyard grass; glass house 25° C., 3 weeks; rank 0-5 vs non-treated district
Procedure: (§1) Wagner pots, each having an area of 1/5000 are, were packed with Ube soil (alluvial soil) and planted with seeds or tubers of young rice plant, barnyard grass, bulrush, Cyperus serotinus Rottb., arrowhead and monochoria. Then, the pots were filled with water to a depth of 3 cm.
(§2) Each wettable powder of the desired Compounds (I) shown in Tables 1 to 21, 24, 25, 28 and 29 prepared in accordance with Example 2 was diluted with water containing a surfactant (0.05%) and subjected to dropwise addition treatment by using pipet so that an effective concentration of the compound (I) in each herbicide became 500 g/ha at 1.5 leaf stage of barnyard grass.
(§3) These plants were controlled in a glass house at an average temperature of 25° C. for 3 weeks, and then herbicidal effects thereof were investigated.
(§4) The herbicidal effects are evaluated according to the following 6 ranks as compared with non-treated district. (0: normal development, 1: Less damaged, 2: Slightly damaged, 3: Moderately damaged, 4: Severely damaged, 5: All killed). Incidentally, “-” in the column means not investigated.

[2] = system: barnyard grass; experiment: Herbicidal test for paddy field; type: in vivo, Eschinochloa crusgalli; conditions: 500 g/ha, dropwise addition to paddy water at 1.5 leaf stage of barnyard grass; glass house 25° C., 3 weeks; rank 0-5 vs non-treated district
Procedure: as §1, §2, §3, §4

[3] = system: Large crabgrass; experiment: Soil treatment test for upland field; type: in vivo, Digitaria adscendens; design: key: 0 = normal development, 5 = all killed; conditions: 500 g/ha, 3 weeks, glass house 25° C.
Procedure, shortened: (§5)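 Pre-emergence soil spray, 500 g/ha, WP formulation in water + 0.05% surfactant; alluvial soil; glasshouse, avg 25° C, 3 wk. Score 0 (normal) to 5 (all killed) vs untreated.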

[4] = system: livid amaranth; experiment: Soil treatment test for upland field; type: in vivo, Amaranthus lividus; design: key: 0 = normal development, 5 = all killed; conditions: 500 g/ha, 3 weeks, glass house 25° C.
Procedure, shortened: as §5

[5] = system: wheat; experiment: Soil treatment test for upland field; type: in vivo; design: key: 0 = normal development, 5 = all killed; conditions: 500 g/ha, 3 weeks, glass house 25° C.
Procedure, shortened: as §5

[6] = system: corn; experiment: Soil treatment test for upland field; type: in vivo; design: key: 0 = normal development, 5 = all killed; conditions: 500 g/ha, 3 weeks, glass house 25° C.
Procedure, shortened: as §5

[7] = system: soybean; experiment: Soil treatment test for upland field; type: in vivo; design: key: 0 = normal development, 5 = all killed; conditions: 500 g/ha, 3 weeks, glass house 25° C.
Procedure, shortened: as §5

[8] = system: common lambsquarters; experiment: Soil treatment test for upland field; type: in vivo, Chenopodium album; design: key: 0 = normal development, 5 = all killed; conditions: 500 g/ha, 3 weeks, glass house 25° C.
Procedure, shortened: as §5

[9] = system: Cyperus serotinus Rottb.; experiment: Herbicidal test for paddy field; type: in vivo; conditions: 500 g/ha, dropwise addition to paddy water at 1.5 leaf stage of barnyard grass; glass house 25° C., 3 weeks; rank 0-5 vs non-treated district
Procedure: as §1, §2, §3, §4

[10] = system: annual bluegrass; experiment: Foliar spread test for upland field; type: in vivo, Poa annua; design: key: 0 = normal development, 5 = all killed (6 ranks vs. untreated); conditions: foliar spray, 500 ppm, 3 weeks, glass house 25° C.
Procedure, shortened: (§6)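 Scores on a 0–5 scale (0 normal development, 5 all killed), relative to untreated controls, were taken 3 weeks post-treatment in a 25 °C glass house. Treatment was a uniform foliar spray at 500 ppm (0.5% surfactant) onto roughly 2-week-old soil-grown plants.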

[11] = system: common Cocklebur (Xanthium strumarium); experiment: Soil treatment test for upland field; type: in vivo; conditions: 500 g/ha, 3 weeks, glass house 25° C.
Procedure: as §4
Wagner pots, each having an area of 1/5000 are, were packed with Ube soil (alluvial soil), and then each seed of corn, soybean, cotton, wheat, solgum, sugar beat, Large crabgrass, barnyard grass, green foxtail, blackgrass, annual bluegrass, common lambsquarters, livid amaranth, velvetleaf, morning glory, common Cocklebur (Xanthium strumarium) and sicklepod (Cassia obtusifolia) were planted and covered with soil.
Each wettable powder of the desired compounds (I) shown in Tables 1 to 21, 24, 25, 28 and 29 prepared in accordance with Example 2 was diluted with water containing a surfactant (0.05%) and uniformly sprayed on the surface of each soil so that an effective concentration of the compound (I) in each herbicide became 500 g/ha.
as §3
(§7) The herbicidal effects were evaluated according to the evaluation method described in the above (1).

[12] = system: common lambsquarters; experiment: Foliar spread test for upland field; type: in vivo, Chenopodium album; design: key: 0 = normal development, 5 = all killed (6 ranks vs. untreated); conditions: foliar spray, 500 ppm, 3 weeks, glass house 25° C.
Procedure, shortened: as §6

[13] = system: blackgrass; experiment: Foliar spread test for upland field; type: in vivo, Alopecurus aegualis; design: key: 0 = normal development, 5 = all killed (6 ranks vs. untreated); conditions: foliar spray, 500 ppm, 3 weeks, glass house 25° C.
Procedure, shortened: as §6

[14] = system: arrowhead; experiment: Herbicidal test for paddy field; type: in vivo, Sagittaria pygmaea; conditions: 500 g/ha, dropwise addition to paddy water at 1.5 leaf stage of barnyard grass; glass house 25° C., 3 weeks; rank 0-5 vs non-treated district
Procedure: as §1, §2, §3, §4

[15] = system: velvetleaf; experiment: Soil treatment test for upland field; type: in vivo, Abutilon theophrasti; design: key: 0 = normal development, 5 = all killed; conditions: 500 g/ha, 3 weeks, glass house 25° C.
Procedure, shortened: as §5

[16] = system: barnyardgrjass; experiment: Foliar spread test for upland field; type: in vivo, Eschinochloa crusgalli; design: key: 0 = normal development, 5 = all killed (6 ranks vs. untreated); conditions: foliar spray, 500 ppm, 3 weeks, glass house 25° C.
Procedure, shortened: as §6

[17] = system: green foxtail; experiment: Soil treatment test for upland field; type: in vivo, Setaria viridis; design: key: 0 = normal development, 5 = all killed; conditions: 500 g/ha, 3 weeks, glass house 25° C.
Procedure, shortened: as §5

[18] = system: solgum; experiment: Soil treatment test for upland field; type: in vivo; design: key: 0 = normal development, 5 = all killed; conditions: 500 g/ha, 3 weeks, glass house 25° C.
Procedure, shortened: as §5

[19] = system: sugar beat; experiment: Soil treatment test for upland field; type: in vivo; design: key: 0 = normal development, 5 = all killed; conditions: 500 g/ha, 3 weeks, glass house 25° C.
Procedure, shortened: as §5

[20] = system: barnyard grass; experiment: Soil treatment test for upland field; type: in vivo, Eschinochloa crusgalli; design: key: 0 = normal development, 5 = all killed; conditions: 500 g/ha, 3 weeks, glass house 25° C.
Procedure, shortened: as §5

[21] = system: morning glory; experiment: Foliar spread test for upland field; type: in vivo, Ipomoea spps.; design: key: 0 = normal development, 5 = all killed (6 ranks vs. untreated); conditions: foliar spray, 500 ppm, 3 weeks, glass house 25° C.
Procedure, shortened: as §6

[22] = system: livid amaranth; experiment: Foliar spread test for upland field; type: in vivo, Amaranthus lividus; design: key: 0 = normal development, 5 = all killed (6 ranks vs. untreated); conditions: foliar spray, 500 ppm, 3 weeks, glass house 25° C.
Procedure, shortened: as §6

[23] = system: Cassia obtusifolia; experiment: Foliar spread test for upland field; type: in vivo; design: key: 0 = normal development, 5 = all killed; conditions: foliar spray, 500 ppm, 3 weeks, glass house 25° C.
Procedure: as §4
(§8) Wagner pots, each having an area of 1/5000 are, were packed with volcanic ash soil and then each seed of corn, soybean, cotton, wheat, solgum, sugar beat, Large crabgrass, barnyardgrjass, green foxtail, blackgrass, annual bluegrass, common lambsquarters, livid amaranth, velvetleaf, morning glory, Xanthium pensylvanicum and Cassia obtusifolia was planted, covered with soil and grown in a glass house at an average temperature of 25° C. for about 2 weeks.
(§9) Each wettable powder of the desired compounds (I) shown in Tables 1 to 21, 24, 25, 28 and 29 prepared in accordance with Example 2 was diluted to 500 ppm with water containing a surfactant (0.5%) and then uniformly sprayed on the above respective plants.
(§10) After these plants were controlled in a glass house at an average temperature of 25° C. for 3 weeks, the herbicidal effects thereof were investigated.
as §7

[24] = system: Xanthium pensylvanicum; experiment: Foliar spread test for upland field; type: in vivo; design: key: 0 = normal development, 5 = all killed; conditions: foliar spray, 500 ppm, 3 weeks, glass house 25° C.
Procedure: as §4, §8, §9, §10, §7

[25] = system: bulrush; experiment: Herbicidal test for paddy field; type: in vivo, Scrips juncoides; conditions: 500 g/ha, dropwise addition to paddy water at 1.5 leaf stage of barnyard grass; glass house 25° C., 3 weeks; rank 0-5 vs non-treated district
Procedure: as §1, §2, §3, §4

[26] = system: morning glory; experiment: Soil treatment test for upland field; type: in vivo, Ipomoea spps.; design: key: 0 = normal development, 5 = all killed; conditions: 500 g/ha, 3 weeks, glass house 25° C.
Procedure, shortened: as §5

[27] = system: solgum; experiment: Foliar spread test for upland field; type: in vivo; design: key: 0 = normal development, 5 = all killed (6 ranks vs. untreated); conditions: foliar spray, 500 ppm, 3 weeks, glass house 25° C.
Procedure, shortened: as §6

[28] = system: wheat; experiment: Foliar spread test for upland field; type: in vivo; design: key: 0 = normal development, 5 = all killed (6 ranks vs. untreated); conditions: foliar spray, 500 ppm, 3 weeks, glass house 25° C.
Procedure, shortened: as §6

[29] = system: sugar beat; experiment: Foliar spread test for upland field; type: in vivo; design: key: 0 = normal development, 5 = all killed (6 ranks vs. untreated); conditions: foliar spray, 500 ppm, 3 weeks, glass house 25° C.
Procedure, shortened: as §6

[30] = system: corn; experiment: Foliar spread test for upland field; type: in vivo; design: key: 0 = normal development, 5 = all killed (6 ranks vs. untreated); conditions: foliar spray, 500 ppm, 3 weeks, glass house 25° C.
Procedure, shortened: as §6

[31] = system: cotton; experiment: Foliar spread test for upland field; type: in vivo; design: key: 0 = normal development, 5 = all killed (6 ranks vs. untreated); conditions: foliar spray, 500 ppm, 3 weeks, glass house 25° C.
Procedure, shortened: as §6

[32] = system: soybean; experiment: Foliar spread test for upland field; type: in vivo; design: key: 0 = normal development, 5 = all killed (6 ranks vs. untreated); conditions: foliar spray, 500 ppm, 3 weeks, glass house 25° C.
Procedure, shortened: as §6

[33] = system: blackgrass; experiment: Soil treatment test for upland field; type: in vivo, Alopecurus aegualis; design: key: 0 = normal development, 5 = all killed; conditions: 500 g/ha, 3 weeks, glass house 25° C.
Procedure, shortened: as §5

[34] = system: green foxtail; experiment: Foliar spread test for upland field; type: in vivo, Setaria viridis; design: key: 0 = normal development, 5 = all killed (6 ranks vs. untreated); conditions: foliar spray, 500 ppm, 3 weeks, glass house 25° C.
Procedure, shortened: as §6

[35] = system: annual bluegrass; experiment: Soil treatment test for upland field; type: in vivo, Poa annua; design: key: 0 = normal development, 5 = all killed; conditions: 500 g/ha, 3 weeks, glass house 25° C.
Procedure, shortened: as §5

[36] = system: Large crabgrass; experiment: Foliar spread test for upland field; type: in vivo, Digitaria adscendens; design: key: 0 = normal development, 5 = all killed (6 ranks vs. untreated); conditions: foliar spray, 500 ppm, 3 weeks, glass house 25° C.
Procedure, shortened: as §6

[37] = system: velvetleaf; experiment: Foliar spread test for upland field; type: in vivo, Abutilon theophrasti; design: key: 0 = normal development, 5 = all killed (6 ranks vs. untreated); conditions: foliar spray, 500 ppm, 3 weeks, glass house 25° C.
Procedure, shortened: as §6

CCC(Oc1cc(C)nc(SC)n1)c1nc2cc(Cl)ccc2o1 (stereo not drawn) [Compound 1-e-64]
Effects Monochoria [1]: 4

CCC(Oc1cc(C(F)(F)F)ncn1)c1nc2cc(Cl)ccc2o1 (stereo not drawn) [Compound 1-e-66]
Effects Monochoria [1]: 5
Effects Barnyardgrass [2]: 2

CCCC(Oc1cc(C)nc(C#N)n1)c1nc2cc(C#N)ccc2o1 (stereo not drawn) [Compound 1-e-70]
Effects Monochoria [1]: 3
Effects Large crabgrass [3]: 2
Effects Livid amaranth [4]: 5
Effects Wheat [5]: 0
Effects Corn [6]: 0
Effects Soybean [7]: 0
Effects Common lambsquarters [8]: 3

FC(F)(F)c1cccc(Oc2cccc(-c3nc4cc(C(F)(F)F)ccc4o3)n2)c1 [I-a-13]
Effects Large crabgrass [3]: 5
Effects Cyperus serotinus Rottb. [9]: 0
Effects Annual bluegrass [10]: 4
Effects Common Cocklebur [11]: 3
Effects Livid amaranth [4]: 5
Effects Common lambsquarters [12]: 5
Effects Blackgrass [13]: 3
Effects Arrowhead [14]: 1
Effects Velvetleaf [15]: 5
Effects Barnyardgrass [16]: 2
Effects Green foxtail [17]: 5
Effects Barnyardgrass [2]: 2
Effects Solgum [18]: 0
Effects Wheat [5]: 1
Effects Sugar beat [19]: 5
Effects Corn [6]: 1
Effects Common lambsquarters [8]: 5
Effects Barnyardgrass [20]: 4
Effects Morning glory [21]: 5
Effects Livid amaranth [22]: 5
Effects Sicklepod [23]: 5
Effects Common Cocklebur [24]: 4
Effects Bulrush [25]: 0
Effects Morning glory [26]: 4
Effects Solgum [27]: 2
Effects Wheat [28]: 2
Effects Sugar beat [29]: 4
Effects Corn [30]: 2
Effects Sotton [31]: 5
Effects Soybean [32]: 3
Effects Blackgrass [33]: 4
Effects Green foxtail [34]: 5
Effects Annual bluegrass [35]: 5
Effects Large crabgrass [36]: 3
Effects Velvetleaf [37]: 4
